In ChEMBL document CHEMBL1275533, “In vitro antibacterial activity of vertilmicin and its susceptibility to modifications by the recombinant AAC6'-APH2'' enzyme” (2008):
Values after ≈ are worked out from the molar mass of the structure shown. Active and inactive are the calls of the source. The calls are words filed in the database; no cut-off is given here.

What was measured:
[1] = system: Escherichia coli; experiment: Antibacterial activity against non-gentamicin-resistant Escherichia coli clinical isolate after 18 hrs by agar dilution method; type: functional
[2] = system: Klebsiella pneumoniae; experiment: Antibacterial activity against non-gentamicin-resistant Klebsiella pneumoniae clinical isolate after 18 hrs by agar dilution method; type: functional
[3] = system: Enterobacter cloacae; experiment: Antibacterial activity against non-gentamicin-resistant Enterobacter cloacae clinical isolate after 18 hrs by agar dilution method; type: functional
[4] = system: Klebsiella aerogenes; experiment: Antibacterial activity against non-gentamicin-resistant Enterobacter aerogenes clinical isolate after 18 hrs by agar dilution method; type: functional
[5] = system: Citrobacter koseri; experiment: Antibacterial activity against non-gentamicin-resistant Citrobacter diversus clinical isolate after 18 hrs by agar dilution method; type: functional
[6] = system: Proteus mirabilis; experiment: Antibacterial activity against non-gentamicin-resistant Proteus mirabilis clinical isolate after 18 hrs by agar dilution method; type: functional
[7] = system: Morganella morganii; experiment: Antibacterial activity against non-gentamicin-resistant Morganella morganii clinical isolate after 18 hrs by agar dilution method; type: functional
[8] = system: Citrobacter freundii; experiment: Antibacterial activity against non-gentamicin-resistant Citrobacter freundii clinical isolate after 18 hrs by agar dilution method; type: functional
[9] = system: Providencia rettgeri; experiment: Antibacterial activity against non-gentamicin-resistant Proteus rettgeri clinical isolate after 18 hrs by agar dilution method; type: functional
[10] = system: Pseudomonas aeruginosa; experiment: Antibacterial activity against non-gentamicin-resistant Pseudomonas aeruginosa clinical isolate after 18 hrs by agar dilution method; type: functional
[11] = system: Pseudomonas sp.; experiment: Antibacterial activity against non-gentamicin-resistant Pseudomonas spp. clinical isolate after 18 hrs by agar dilution method; type: functional
[12] = system: Haemophilus influenzae; experiment: Antibacterial activity against non-gentamicin-resistant Haemophilus influenzae clinical isolate after 18 hrs by agar dilution method; type: functional
[13] = system: Haemophilus parainfluenzae; experiment: Antibacterial activity against non-gentamicin-resistant Haemophilus parainfluenzae clinical isolate after 18 hrs by agar dilution method; type: functional
[14] = system: Staphylococcus aureus; experiment: Antibacterial activity against non-gentamicin-resistant Staphylococcus aureus clinical isolate after 18 hrs by agar dilution method; type: functional
[15] = system: Escherichia coli; experiment: Antibacterial activity against non-gentamicin-resistant Escherichia coli clinical isolate assessed as susceptible isolates after 18 hrs by agar dilution method; type: functional
[16] = system: Klebsiella aerogenes; experiment: Antibacterial activity against non-gentamicin-resistant Enterobacter aerogenes clinical isolate assessed as susceptible isolates after 18 hrs by agar dilution method; type: functional
[17] = system: Citrobacter koseri; experiment: Antibacterial activity against non-gentamicin-resistant Citrobacter diversus clinical isolate assessed as susceptible isolates after 18 hrs by agar dilution method; type: functional
[18] = system: Proteus mirabilis; experiment: Antibacterial activity against non-gentamicin-resistant Proteus mirabilis clinical isolate assessed as susceptible isolates after 18 hrs by agar dilution method; type: functional
[19] = system: Morganella morganii; experiment: Antibacterial activity against non-gentamicin-resistant Morganella morganii clinical isolate assessed as susceptible isolates after 18 hrs by agar dilution method; type: functional
[20] = system: Providencia rettgeri; experiment: Antibacterial activity against non-gentamicin-resistant Proteus rettgeri clinical isolate assessed as susceptible isolates after 18 hrs by agar dilution method; type: functional
[21] = system: Pseudomonas aeruginosa; experiment: Antibacterial activity against non-gentamicin-resistant Pseudomonas aeruginosa clinical isolate assessed as susceptible isolates after 18 hrs by agar dilution method; type: functional
[22] = system: Pseudomonas sp.; experiment: Antibacterial activity against non-gentamicin-resistant Pseudomonas spp. clinical isolate assessed as susceptible isolates after 18 hrs by agar dilution method; type: functional
[23] = system: Escherichia coli; experiment: Antibacterial activity against gentamicin-resistant Escherichia coli clinical isolate after 18 hrs by agar dilution method; type: functional
[24] = system: Enterobacter cloacae; experiment: Antibacterial activity against gentamicin-resistant Enterobacter cloacae clinical isolate after 18 hrs by agar dilution method; type: functional
[25] = system: Citrobacter koseri; experiment: Antibacterial activity against gentamicin-resistant Citrobacter diversus clinical isolate after 18 hrs by agar dilution method; type: functional
[26] = system: Proteus mirabilis; experiment: Antibacterial activity against gentamicin-resistant Proteus mirabilis clinical isolate after 18 hrs by agar dilution method; type: functional
[27] = system: Morganella morganii; experiment: Antibacterial activity against gentamicin-resistant Morganella morganii clinical isolate after 18 hrs by agar dilution method; type: functional
[28] = system: Citrobacter freundii; experiment: Antibacterial activity against gentamicin-resistant Citrobacter freundii clinical isolate after 18 hrs by agar dilution method; type: functional
[29] = system: Acinetobacter calcoaceticus; experiment: Antibacterial activity against gentamicin-resistant Acinetobacter calcoaceticus clinical isolate after 18 hrs by agar dilution method; type: functional
[30] = system: Pseudomonas aeruginosa; experiment: Antibacterial activity against gentamicin-resistant Pseudomonas aeruginosa clinical isolate after 18 hrs by agar dilution method; type: functional
[31] = system: Staphylococcus aureus; experiment: Antibacterial activity against gentamicin-resistant Staphylococcus aureus clinical isolate after 18 hrs by agar dilution method; type: functional
[32] = system: Staphylococcus epidermidis; experiment: Antibacterial activity against gentamicin-resistant Staphylococcus epidermidis clinical isolate after 18 hrs by agar dilution method; type: functional
[33] = system: Enterococcus faecalis; experiment: Antibacterial activity against gentamicin-resistant Enterococcus faecalis clinical isolate after 18 hrs by agar dilution method; type: functional
[34] = system: Klebsiella pneumoniae; experiment: Antibacterial activity against gentamicin-resistant Klebsiella pneumoniae clinical isolate assessed as susceptible isolates after 18 hrs by agar dilution method; type: functional
[35] = system: Enterobacter cloacae; experiment: Antibacterial activity against gentamicin-resistant Enterobacter cloacae clinical isolate assessed as susceptible isolates after 18 hrs by agar dilution method; type: functional
[36] = system: Klebsiella aerogenes; experiment: Antibacterial activity against gentamicin-resistant Enterobacter aerogenes clinical isolate assessed as susceptible isolates after 18 hrs by agar dilution method; type: functional
[37] = system: Serratia marcescens; experiment: Antibacterial activity against gentamicin-resistant Serratia marcescens clinical isolate assessed as susceptible isolates after 18 hrs by agar dilution method; type: functional
[38] = system: Morganella morganii; experiment: Antibacterial activity against gentamicin-resistant Morganella morganii clinical isolate assessed as susceptible isolates after 18 hrs by agar dilution method; type: functional
[39] = system: Citrobacter freundii; experiment: Antibacterial activity against gentamicin-resistant Citrobacter freundii clinical isolate assessed as susceptible isolates after 18 hrs by agar dilution method; type: functional
[40] = system: Providencia rettgeri; experiment: Antibacterial activity against gentamicin-resistant Proteus rettgeri clinical isolate assessed as susceptible isolates after 18 hrs by agar dilution method; type: functional
[41] = system: Acinetobacter calcoaceticus; experiment: Antibacterial activity against gentamicin-resistant Acinetobacter calcoaceticus clinical isolate assessed as susceptible isolates after 18 hrs by agar dilution method; type: functional
[42] = system: Pseudomonas aeruginosa; experiment: Antibacterial activity against gentamicin-resistant Pseudomonas aeruginosa clinical isolate assessed as susceptible isolates after 18 hrs by agar dilution method; type: functional
[43] = system: Staphylococcus aureus; experiment: Antibacterial activity against gentamicin-resistant Staphylococcus aureus clinical isolate assessed as susceptible isolates after 18 hrs by agar dilution method; type: functional
[44] = system: Staphylococcus epidermidis; experiment: Antibacterial activity against gentamicin-resistant Staphylococcus epidermidis clinical isolate assessed as susceptible isolates after 18 hrs by agar dilution method; type: functional
[45] = system: Enterococcus faecalis; experiment: Antibacterial activity against gentamicin-resistant Enterococcus faecalis clinical isolate assessed as susceptible isolates after 18 hrs by agar dilution method; type: functional, organism-based
[46] = system: Escherichia coli BL21(DE3); experiment: Acetylation activity of AAC(6')-APH(2'') in Escherichia coli BL21(DE3) assessed as production of free pyridine-4-thiolate

What does the source list for `CCN[C@@H]1C[C@H](N)[C@@H](O[C@H]2OC(CN)=CC[C@H]2N)[C@H](O)[C@H]1O[C@H]1OC[C@](C)(O)[C@H](NC)[C@H]1O` [NETILMICIN]?
MIC50 [1]: 0.5 µg/mL (≈ 1.05 µM); MIC90 [1]: 0.5 µg/mL (≈ 1.05 µM); MIC50 [2]: 0.5 µg/mL (≈ 1.05 µM); MIC90 [2]: 0.5 µg/mL (≈ 1.05 µM); MIC50 [3]: 0.5 µg/mL (≈ 1.05 µM); MIC90 [3]: 2 µg/mL (≈ 4.21 µM); MIC50 [4]: 0.5 µg/mL (≈ 1.05 µM); MIC90 [4]: 1 µg/mL (≈ 2.1 µM); MIC50 [5]: 0.5 µg/mL (≈ 1.05 µM); MIC90 [5]: 0.5 µg/mL (≈ 1.05 µM); MIC50 [6]: 1 µg/mL (≈ 2.1 µM); MIC90 [6]: 2 µg/mL (≈ 4.21 µM); MIC50 [7]: 1 µg/mL (≈ 2.1 µM); MIC90 [7]: 2 µg/mL (≈ 4.21 µM); MIC50 [8]: 1 µg/mL (≈ 2.1 µM); MIC90 [8]: 16 µg/mL (≈ 33.6 µM); MIC50 [9]: 2 µg/mL (≈ 4.21 µM); MIC90 [9]: 8 µg/mL (≈ 16.8 µM); MIC50 [10]: 8 µg/mL (≈ 16.8 µM); MIC90 [10]: 32 µg/mL (≈ 67.3 µM); MIC50 [11]: 8 µg/mL (≈ 16.8 µM); MIC90 [11]: 32 µg/mL (≈ 67.3 µM); MIC50 [12]: 1 µg/mL (≈ 2.1 µM); MIC90 [12]: 2 µg/mL (≈ 4.21 µM); MIC50 [13]: 1 µg/mL (≈ 2.1 µM); MIC90 [13]: 2 µg/mL (≈ 4.21 µM); MIC50 [14]: 0.25 µg/mL (≈ 0.526 µM); MIC90 [14]: 16 µg/mL (≈ 33.6 µM); Activity [15]: 100%; Activity [16]: 98.1%; Activity [17]: 100%; Activity [18]: 98.4%; Activity [19]: 100%; Activity [20]: 92.3%; Activity [21]: 63.9%; Activity [22]: 72.7%; MIC50 [23]: 8 µg/mL (≈ 16.8 µM); MIC90 [23]: 64 µg/mL (≈ 135 µM); MIC50 [24]: 128 µg/mL (≈ 269 µM); MIC90 [24]: > 128 µg/mL; MIC50 [25]: > 128 µg/mL; MIC90 [25]: > 128 µg/mL; MIC50 [26]: 16 µg/mL (≈ 33.6 µM); MIC90 [26]: > 128 µg/mL; MIC50 [27]: 8 µg/mL (≈ 16.8 µM); MIC90 [27]: 16 µg/mL (≈ 33.6 µM); MIC50 [28]: 8 µg/mL (≈ 16.8 µM); MIC90 [28]: > 128 µg/mL; MIC50 [29]: 128 µg/mL (≈ 269 µM); MIC90 [29]: > 128 µg/mL; MIC50 [30]: > 128 µg/mL; MIC90 [30]: > 128 µg/mL; MIC50 [31]: 16 µg/mL (≈ 33.6 µM); MIC90 [31]: 128 µg/mL (≈ 269 µM); MIC50 [32]: 2 µg/mL (≈ 4.21 µM); MIC90 [32]: 32 µg/mL (≈ 67.3 µM); MIC50 [33]: 4 µg/mL (≈ 8.41 µM); MIC90 [33]: > 128 µg/mL; Activity [34]: 17.9%; Activity [35]: 5.3%; Activity [36]: 30%; Activity [37]: 10%; Activity [38]: 41.7%; Activity [39]: 47.4%; Activity [40]: 40%; Activity [41]: 20%; Activity [42]: 2.9%; Activity [43]: 47.2%; Activity [44]: 84.6%; Activity [45]: inactive; Km [46]: 304 µM
